Measurements published in patent US20250281430A1, “BUPROPION AS A MODULATOR OF DRUG ACTIVITY” (ANTECIP BIOVENTURES II LLC, priority 2022, published 2025).
Structures can show the parent of a compound that is named as a salt.

Assays:
[1] = Solubility of the powder in water; type: physicochemical
[2] = Pharmacokinetics after administration of the subject combination; settings: for Cmax relative to the peak level of bupropion: after administration of the subject combination; for apparent elimination half-life (metabolite): subject combination

Row | Structure (SMILES) | solubility in water [1] | dose proportionality of pharmacokinetics (AUC and Cmax) ([2]; co-administered with bupropion, steady state, dextromethorphan 30 to 60 mg, bupropion 75 to 150 mg) | Cmax when administered with food ([2]; subject combination with food) | Cmax relative to the peak level of bupropion [2] | apparent elimination half-life (metabolite) [2]
1 | CC(NC(C)(C)C)C(=O)c1cccc(Cl)c1 (racemic) [Bupropion hydrochloride, (±)-1-(3-chlorophenyl)-2-[(1,1-dimethylethyl)amino]-1-propanone hydrochloride] | highly soluble in water |  |  |  | 
2 | COc1ccc2c(c1)[C@]13CCCC[C@@H]1[C@H](C2)N(C)CC3 [dextromethorphan, reference compound] |  | nonlinear pharmacokinetics at steady state | unchanged |  | 
3 | CC(NC(C)(C)C)C(O)c1cccc(Cl)c1 (stereo not drawn) [erythrohydroxybupropion] |  |  |  | approximately equal to | ~44 h
4 | C[C@H]1NC(C)(C)CO[C@]1(O)c1cccc(Cl)c1 [hydroxybupropion] |  |  |  | approximately 14 times | approximately 35 hours
5 | C[C@H](NC(C)(C)C)[C@@H](O)c1cccc(Cl)c1 [threohydroxybupropion] |  |  |  | about 5 times | ~33 h
